According to PubChem BioAssay (NCI):
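Five compound concentrations were applied to cells in 96-well plates for 48 hours; endpoints were derived by simple linear interpolation of the resulting dose-response curve. GI50 marks 50% less growth. TGI: total growth inhibition.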

How the values were obtained:
Experiment in all cases: NCI anticancer screen, dose series, 48 h
SF-268 CNS = test system: SF-268 CNS
SF-539 CNS = test system: SF-539 CNS
LOX IMVI melanoma = test system: LOX IMVI melanoma
COLO 205 colon = test system: COLO 205 colon
SN12C renal = test system: SN12C renal
HT29 colon = test system: HT29 colon
CAKI-1 renal = test system: CAKI-1 renal
SK-OV-3 ovarian = test system: SK-OV-3 ovarian
NCI/ADR-RES ovarian = test system: NCI/ADR-RES ovarian
BT-549 breast = test system: BT-549 breast

| SMILES | TGI (SF-268 CNS) [µM] | TGI (SF-539 CNS) [µM] | TGI (LOX IMVI melanoma) [µM] | TGI (COLO 205 colon) [µM] | TGI (SN12C renal) [µM] | TGI (HT29 colon) [µM] | TGI (CAKI-1 renal) [µM] | TGI (SK-OV-3 ovarian) [µM] | GI50 (SF-539 CNS) [nM] | GI50 (LOX IMVI melanoma) [nM] | GI50 (COLO 205 colon) [nM] | GI50 (CAKI-1 renal) [nM] | GI50 (SN12C renal) [µM] | GI50 (SK-OV-3 ovarian) [µM] | GI50 (HT29 colon) [nM] | TGI (NCI/ADR-RES ovarian) [µM] | GI50 (NCI/ADR-RES ovarian) [µM] | GI50 (SF-268 CNS) [nM] | GI50 (BT-549 breast) [µM] | TGI (BT-549 breast) [µM] |
| --- | --- | --- | --- | --- | --- | --- | --- | --- | --- | --- | --- | --- | --- | --- | --- | --- | --- | --- | --- | --- |
| C1=C2/CC[C@H](Sc3ccccc3)C2C2(CCCCC/1)OCCO2 (some centres undefined) | > 100 | > 100 | 28.9 | 37.8 | > 100 | 28 | – | – | – | – | – | – | – | – | – | – | – | – | – | – |
| O=C(O)CCC(NC(=O)c1ccc(Nc2nc3ccccc3nc2-c2cccs2)cc1)C(=O)O (centres undefined) | > 100 | > 100 | > 100 | – | > 100 | > 100 | > 100 | > 100 | – | – | – | – | – | – | – | – | – | – | – | – |
| CCC[CH2][Sn]([CH2]CCC)([S]c1cccc2cccnc12)[S]c1cccc2cccnc12 | – | 0.617 | 0.359 | 0.224 | 0.822 | 0.335 | 0.342 | 1.18 | 234 | 175 | 59.2 | 123 | 0.24 | 0.324 | 138 | – | – | – | – | – |
| CCn1c(C)nn2c(=O)c3ccccc3nc2c1=O | – | > 100 | > 100 | > 100 | – | > 100 | > 100 | > 100 | – | – | – | – | – | – | – | – | – | – | – | – |
| Nc1ccccc1S(=O)(=O)N(CC(=O)O)c1ccccc1 | > 100 | > 100 | > 100 | > 100 | > 100 | > 100 | > 100 | > 100 | – | – | – | – | – | – | – | – | – | – | – | – |
| Cc1ccc([N+](=O)[O-])cc1NC1=NCCO1 | > 100 | > 100 | > 100 | > 100 | > 100 | > 100 | > 100 | > 100 | – | – | – | – | – | – | – | > 100 | – | – | – | – |
| Cc1cc(NS(=O)(=O)c2ccc(Nc3c4ccccc4nc4c(C(=O)N5CCN(CCOS(C)(=O)=O)CC5)cccc34)cc2)no1 | > 100 | > 100 | – | > 100 | > 100 | > 100 | > 100 | > 100 | – | – | – | – | – | – | – | – | – | – | – | – |
| COC1/C=C/OC2(C)Oc3c(C)c(O)c4c(O)c(c(/C=N/Nc5ccc([N+](=O)[O-])cc5[N+](=O)[O-])c(O)c4c3C2=O)NC(=O)C(C)=C/C=C/C(C)C(O)C(C)C(O)C(C)C(OC(C)=O)C1C (centres undefined) | 11.4 | 19.4 | 2.32 | 10.5 | > 50 | – | > 50 | 31.1 | 1900 | 1030 | 2800 | 2900 | 10.2 | 10.6 | – | > 50 | 22.2 | 1590 | – | – |
| Cc1nc2c(ccc3ncccc32)[nH]1 | > 100 | > 100 | > 100 | > 100 | > 100 | > 100 | > 100 | > 100 | – | – | – | – | – | – | – | – | – | – | – | – |
| COC(=O)/C(C#N)=C1\NC(=O)c2ccccc21 | > 100 | > 100 | > 100 | > 100 | > 100 | > 100 | – | > 100 | – | – | – | – | – | – | – | – | – | – | – | – |
| Cc1c(C(=O)C/C(=N/NC(=O)c2ccccc2O)C(=O)Nc2ccccc2C(C)C)[n+](=O)c2ccccc2n1[O-] | > 100 | > 100 | > 100 | > 100 | > 100 | > 100 | > 100 | > 100 | – | – | – | – | – | – | – | – | – | – | – | – |
| Cc1cc(N(CCC#N)CCC#N)ccc1N=Nc1ccc(S(N)(=O)=O)cc1 | > 100 | > 100 | > 100 | > 100 | > 100 | > 100 | > 100 | > 100 | – | – | – | – | – | – | – | – | – | – | – | – |
| COC(=O)c1ccccc1NC(=O)C(=O)Cc1nc2c3c(ccc2[nH]c1=O)C(=O)c1ccccc1C3=O | 67.9 | > 100 | 44.6 | > 100 | > 100 | > 100 | > 100 | > 100 | – | – | – | – | – | – | – | – | – | – | – | – |
| CN1CCCCC1CCN1c2ccccc2Sc2ccc(Cl)cc21 (centres undefined) | 8.85 | 5.42 | – | 4.83 | 13.9 | 11.1 | 15.8 | 13.7 | 2290 | – | 2240 | 3630 | 3.65 | 3.69 | 3170 | 7.62 | 2.89 | 2990 | 10.4 | 23.3 |
| CC1(C(=O)O)CCC[C@@]2(C)C1CC[C@@]1(C)c3cocc3CCC21 (some centres undefined) | > 100 | > 100 | > 100 | > 100 | > 100 | > 100 | > 100 | > 100 | – | – | – | – | – | – | – | – | – | – | – | – |
| C=CCOc1ccc2c(C)cc(=O)oc2c1C | > 100 | > 100 | > 100 | > 100 | > 100 | > 100 | > 100 | – | – | – | – | – | – | – | – | > 100 | – | – | – | > 100 |
| COC(=O)CC[N+]1=CCC(c2ccccc2)(c2ccccc2)O1 | > 100 | > 100 | – | > 100 | > 100 | > 100 | > 100 | > 100 | – | – | – | – | – | – | – | – | – | – | – | > 100 |
| CC1(C)C(=O)/C=C\C(=O)C(C)(C)C2=CC=C(O2)C(C)(C)C(=O)/C=C\C(=O)C(C)(C)C2=CC=C1O2 | > 100 | – | > 100 | > 100 | > 100 | > 100 | > 100 | > 100 | – | – | – | – | – | – | – | – | – | – | – | – |
| CCOC(=O)CCC1(C(=O)OCC)CCCCC1=O (centres undefined) | > 100 | > 100 | > 100 | > 100 | – | > 100 | – | > 100 | – | – | – | – | – | – | – | – | – | – | – | – |
| COc1cc2c(c3oc4c(O)cccc4c(=O)c13)CC(C(C)(O)CO)O2 (centres undefined) | > 100 | > 100 | > 100 | > 100 | > 100 | > 100 | > 100 | – | – | – | – | – | – | – | – | > 100 | – | – | – | > 100 |
| CO/C(=N\N=C\c1ccc(C(F)(F)F)cc1)c1ccncc1 | > 10 | – | > 10 | > 10 | > 10 | > 10 | > 10 | – | – | – | – | – | – | – | – | > 10 | – | – | – | > 10 |
| COC(CCC[N+](C)(C)C)CC[N+](C)(C)C (centres undefined) | > 100 | > 100 | – | > 100 | > 100 | > 100 | > 100 | > 100 | – | – | – | – | – | – | – | > 100 | – | – | – | > 100 |
